Reference: patent publication US6653064B1, “Method for identifying compounds useful in the therapy of bone disorders” (Boehringer Ingelheim International GmbH, priority 1999, dated 2003)

What was measured:
[1] = system: endogenous fra-1; test: RT-PCR analysis of fra-1 transcripts in primary osteoblast cultures; type: cell-based, mice; details: wild-type osteoblasts, cultures 7 days after plating, not expressed without stimulation
Description: To further investigate the consequences of Fra-1 expression on osteoblasts, primary osteoblasts were prepared from the calvariae of neonatal (6-8 days old) mice and differentiated in vitro. Calvariae were sequentially digested for 10 minutes in α-MEM containing 0.1% collagenase and 0.2% dispase. Cells isolated by fractions 2 to 5 were combined as an osteoblastic cell population, expanded for 2 days in α-MEM with 10% FCS and replated at a density of 10^4 cells per cm^2. After reaching confluency, medium was supplemented with 5 mM β-glycerophosphate and 100 μg/ml ascorbic acid. There was no difference in the proliferation between wild-type and transgenic osteoblasts. The time course of differentiation was followed by ALP activity and by the deposition of mineralized extracelluar matrix. For ALP activity measurement, cells were washed with PBS and sonicated in 10 mM Tris-HCl buffer (pH 8.0). ALP activity in the lysate was measured using a calorimetric assay (Sigma). […] In transgenic cultures, areas of mineralized extracellular matrix monitored by alizarine red S staining were first observed at day 12, when no stained areas were present in wild-type cultures (FIG. 5b). […]
5′-GTACCGAGACTACGGGGAACCGG-3′ SEQ. […] Exogenous and endogenous fra-1 was detected in transgenic osteoblasts, irrespective of induction by phorbol myristate acetate (PMA) (FIG. 5c). […]

[2] = system: Fra-1 expression; details: substance known to induce Fra-1 expression (Yoshioka et al., 1995); cited from earlier work

| SMILES | expression of endogenous fra-1 upon stimulation [1] | Fra-1 expression in cultured cells [2] |
| --- | --- | --- |
| CCCCCCCCCCCCCC(=O)O[C@@H]1[C@@H](C)[C@@]2(O)[C@@H](C=C(CO)C[C@]3(O)C(=O)C(C)=C[C@@H]23)[C@@H]2C(C)(C)[C@]12OC(C)=O [PMA, phorbol myristate acetate] | induced |  |
| CC(C)(C)c1cc(O)ccc1O [tert-butylhydroquinone] |  | induce Fra-1 expression |
